Results from PubChem BioAssay AID1963976 (Molecular Pharmacology Branch, DTP, NCI, 2024).

Tested on: 435261-313-R-J1-PDC tumor spheroid viability
Assay: Anticancer human tumor 435261-313-R-J1-PDC patient-derived colon adenocarcinoma cell line growth inhibition [PI3K]
Conditions: spheroids with HUVEC and MSC; for IC50: curve of first compound; for viability, T/C: stronger effect = lower value; active = viability on the fitted dose curve at most 10% of control; inactive = the rest
In short: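 Three cell types, namely tumor cells, endothelial cells and mesenchymal stem cells, formed each spheroid. Combinations with four PI3K inhibitors were screened at clinically achievable concentrations decreasing by half-log, and spheroid viability was recorded.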

[1] = second compound 0.0316 µM, first compound 0.0316 µM
[2] = second compound 0.0316 µM, first compound 0.1 µM
[3] = second compound 0.0316 µM, first compound 0.316 µM
[4] = second compound 0.0316 µM, first compound 1 µM
[5] = second compound 0.0316 µM, first compound 3.16 µM
[6] = second compound 0.0316 µM, first compound 10 µM
[7] = second compound 0.1 µM, first compound 0.0316 µM
[8] = second compound 0.1 µM, first compound 0.1 µM
[9] = second compound 0.1 µM, first compound 0.316 µM
[10] = second compound 0.1 µM, first compound 1 µM
[11] = second compound 0.1 µM, first compound 3.16 µM
[12] = second compound 0.1 µM, first compound 10 µM
[13] = second compound 0.316 µM, first compound 0.0316 µM
[14] = second compound 0.316 µM, first compound 0.1 µM
[15] = second compound 0.316 µM, first compound 0.316 µM
[16] = second compound 0.316 µM, first compound 1 µM
[17] = second compound 0.316 µM, first compound 3.16 µM
[18] = second compound 0.316 µM, first compound 10 µM
[19] = second compound 1 µM, first compound 0.0316 µM
[20] = second compound 1 µM, first compound 0.1 µM
[21] = second compound 1 µM, first compound 0.316 µM
[22] = second compound 1 µM, first compound 1 µM
[23] = second compound 1 µM, first compound 3.16 µM
[24] = second compound 1 µM, first compound 10 µM
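Also: spheroids exposed to compounds for 7 days.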

Cn1ncc(Cl)c1-c1cc(C(=O)NC(CN)Cc2cccc(F)c2)sc1Cl (centres undefined) + Cc1nc(NC(=O)N2CCCC2C(N)=O)sc1-c1ccnc(C(C)(C)C(F)(F)F)c1
< 31.6 nM: IC50 (second compound 0.316 µM) | IC50 (second compound 1 µM) | IC50 (second compound 3.16 µM) | IC50 (second compound 10 µM)
400 nM: IC50 (second compound 0.1 µM)
inactive: viability, T/C [1] 83.5% | viability, T/C [2] 67.3% | viability, T/C [3] 71.8% | viability, T/C [4] 31.2% | viability, T/C [5] 18.6% | viability, T/C [6] 6.47% | viability, T/C [7] 58.5% | viability, T/C [8] 82% | viability, T/C [9] 51.6% | viability, T/C [10] 28.1% | viability, T/C [11] 21.7% | viability, T/C [12] 6.76% | viability, T/C [13] 42.9% | viability, T/C [14] 41% | viability, T/C [15] 38% | viability, T/C [16] 27.2% | viability, T/C [17] 14.2% | viability, T/C [19] 31.9% | viability, T/C [20] 34.8% | viability, T/C [21] 29.2% | viability, T/C [22] 19.1% | viability, T/C [23] 16.2% | viability, T/C (second compound 3.16 µM, first compound 0.0316 µM) 15.7% | viability, T/C (second compound 3.16 µM, first compound 0.1 µM) 14.7% | viability, T/C (second compound 3.16 µM, first compound 0.316 µM) 15.8% | viability, T/C (second compound 3.16 µM, first compound 1 µM) 16.9%
active: viability, T/C [18] 7.01% | viability, T/C [24] 4.12% | viability, T/C (second compound 3.16 µM, first compound 3.16 µM) 11.9% | viability, T/C (second compound 3.16 µM, first compound 10 µM) 1.21% | viability, T/C (second compound 10 µM, first compound 0.0316 µM) 9.08% | viability, T/C (second compound 10 µM, first compound 0.1 µM) 7.96% | viability, T/C (second compound 10 µM, first compound 0.316 µM) 6.42% | viability, T/C (second compound 10 µM, first compound 1 µM) 8.32% | viability, T/C (second compound 10 µM, first compound 3.16 µM) 4.5% | viability, T/C (second compound 10 µM, first compound 10 µM) 0.47%
579 nM: IC50 (second compound 0.0316 µM)

CC1(C)CCC(Nc2ncc(C(F)(F)F)c(-c3c[nH]c4c(P(C)(C)=O)c(C#N)ccc34)n2)CN1 (centres undefined) + COc1c(OCCCN2CCOCC2)ccc2c3n(c(=NC(=O)c4cnc(N)nc4)nc12)CCN3
< 31.6 nM: IC50 (second compound 0.0316 µM) | IC50 (second compound 0.1 µM) | IC50 (second compound 0.316 µM) | IC50 (second compound 1 µM)
31.6 nM: IC50 (second compound 0.01 µM)
active: viability, T/C (second compound 0.00316 µM, first compound 10 µM) 0.44% | viability, T/C (second compound 0.01 µM, first compound 10 µM) 0.48% | viability, T/C [6] 0.35% | viability, T/C [11] 7.14% | viability, T/C [12] 0.28% | viability, T/C [13] 7.08% | viability, T/C [14] 6.11% | viability, T/C [15] 5.71% | viability, T/C [16] 5.56% | viability, T/C [17] 2.4% | viability, T/C [18] 0.23% | viability, T/C [19] 3.57% | viability, T/C [20] 2.68% | viability, T/C [21] 3.18% | viability, T/C [22] 2.83% | viability, T/C [23] 1.6% | viability, T/C [24] 0.23%
inactive: viability, T/C (second compound 0.00316 µM, first compound 0.0316 µM) 56.2% | viability, T/C (second compound 0.00316 µM, first compound 0.1 µM) 58.8% | viability, T/C (second compound 0.00316 µM, first compound 0.316 µM) 54.5% | viability, T/C (second compound 0.00316 µM, first compound 1 µM) 57.2% | viability, T/C (second compound 0.00316 µM, first compound 3.16 µM) 50.1% | viability, T/C (second compound 0.01 µM, first compound 0.0316 µM) 42.3% | viability, T/C (second compound 0.01 µM, first compound 0.1 µM) 43.9% | viability, T/C (second compound 0.01 µM, first compound 0.316 µM) 49.2% | viability, T/C (second compound 0.01 µM, first compound 1 µM) 47.7% | viability, T/C (second compound 0.01 µM, first compound 3.16 µM) 58.8% | viability, T/C [1] 31.6% | viability, T/C [2] 32.6% | viability, T/C [3] 33.7% | viability, T/C [4] 30.9% | viability, T/C [5] 21.5% | viability, T/C [7] 17.8% | viability, T/C [8] 16.8% | viability, T/C [9] 15.5% | viability, T/C [10] 18.6%
3170 nM: IC50 (second compound 0.00316 µM)
